Source: US12624068B2, “Exon skipping by peptide nucleic acid derivatives” (OliPass Corporation, priority 2016, dated 2026)
{Fethoc} = N-terminal Fethoc cap; [C(1O2)] = modified PNA monomer acting as cytosine, C(pOq) type, 1O2; [A(5)] = modified PNA monomer acting as adenine, A(p) type, p=5; [A(6)] = modified PNA monomer acting as adenine, A(p) type, p=6; [G(6)] = modified PNA monomer acting as guanine, G(p) type, p=6; {NH2} = C-terminal amide

Tests used:
HIF-1α protein = assay: HIF-1α western blot in HeLa cells; format: cell-based, human; conditions: 24 hours
Description: “HIF-ASO 2” was evaluated for its ability to inhibit the expression of HIF-1α protein in HeLa cells as described below.
[Cell Culture & ASO Treatment] HeLa cells grown in 60 mm culture dish containing 5 mL culture medium were treated with “HIF-ASO 2” at 0 zM (negative control), 10 zM, 100 zM, 1 aM, or 10 aM.
[CoCl2 Treatment and Cell Lysis] 24 hours after the ASO treatment, the culture dishes except for the one without ASO treatment were treated with 200 μM CoCl2 for another 3 hours to upregulate the HIF-1α protein level by suppressing the activity of prolylhydroxylases (PHDs). Then the cells were washed 2× with 1 mL cold PBS, and subjected to lysis on ice with 200 μL 1×RIPA buffer (Cat. Number 9806, Cell Signaling Tech) supplemented with 1% SDS and 1× proteinase inhibitor cocktail (cOmplete Mini, Roche). Each lysate was collected in 1.5 mL e-tube, mixed with 100 μL 5× sample buffer, and boiled for 5 min at 100° C. The lysates were subjected to electrophoretic separation on an 8% SDS-PAGE gel, and transferred onto a 0.45 μm PVDF membrane. The membrane was probed with an anti-HIF-1α antibody (Cat. Number 610958, BD Biosciences) and an anti-β-actin antibody (Cat. Number sc4778, Santa Cruz).
FIG. 19B is a western blot data obtained with HeLa cells treated with “HIF-ASO 6” at 0 (negative control), 10, 100 or 1,000 zM for 24 hours. FIG. 19C provides the individual HIF-1α band intensities normalized against each individual β-actin band intensity by densitometry. The expression of HIF-1α protein decreased by ca 45-55% in the cells treated with “HIF-ASO 6”.
“HIF-ASO 1” was evaluated for its ability to inhibit the HIF-1α protein expression in HeLa cells according to the procedures described in “HIF-1α Example 2” unless noted otherwise. In this example, HeLa cells were treated with “HIF-ASO 1” at 0 zM (negative control), 100 zM, 300 zM, 1 aM, 3 aM, 10 aM, 30 aM, 100 aM or 300 aM for 72 hours prior to suppressing the activity of PHDs by an incubation with 200 μM CoCl2 for 3 hours. There were 4 culture dishes of the negative control, i.e., 0 zM “HIF-ASO 1”.
[ASO Treatment] […]

[1] = system: sodium current in PC3 cells; assay: CoroNa assay of sodium current in PC3 cells; format: cell-based, human; conditions: 30 hours
Description: Cellular sodium current is measured by patch clamp. As sodium ions enter cell, the intra-cellular sodium ion level increases. The intra-cellular sodium level can be probed using a sodium ion sensitive dye. “CoroNa Green” is a dye with a sodium ion chelator of crown ether type. Upon chelation with a sodium ion, “CoroNa Green” emits green fluorescence. “CoroNa Green” has been used to indirectly measure the intra-cellular sodium level. […] [Proc. Natl. Acad. Sci. USA vol 106(38), 16145-16150 (2009)]
PC3 cells are known to abundantly express the human SCN9A mRNA, although there are other SCN subtypes concomitantly expressed. [Br J. Pharmacol. vol 156, 420-431 (2009)] Thus an inhibition of SCN9A mRNA expression may lead to a considerable reduction of the sodium current in PC3 cells, if the sodium ion current by the Nav1.7 sodium channel subtype occupies a marked portion of the total sodium ion current in PC3 cells. It is note that the SCN9A mRNA encodes the Nav1.7 sodium channel subtype.
“SCN-ASO 7” was evaluated for its ability to inhibit the sodium ion current in PC3 cells using “CoroNa Green” as follows.
[ASO Treatment] PC3 cells grown in 35 mm culture dish containing 2 mL F-12K medium were treated with “SCN-ASO 7” at 0 zM (negative control), 100 zM or 1 aM.
[CoroNa Assay] 30 hours later, the cells were washed with 2 mL HBSS (Hank's Balanced Salt Solution, Cat. Number 14025-092, Life Technologies), and then charged with 2 mL fresh HBSS. Then the cells were treated with 5 μM “CoroNa Green” (Cat. Number C36676, Life Technologies) at 37° C. 30 min later, the cells were washed 2× with 2 mL HBSS, and charged with 2 mL fresh HBSS. The culture dish was mounted on an Olympus fluorescence microscope equipped with a digital video camera to continuously capture the green fluorescence images of the cells. The cells were acutely treated with 100 mM NaCl, and then the changes in fluorescence cellular images were digitally recorded over a period of 3 min. There were about 4 cells per frame on average. The fluorescence intensities from each individual cell were traced at the resolution of a second. The traces of the intracellular fluorescence intensities from individual cells were overlaid and averaged at each time point. The average of the traces from the individual cells of each ASO concentration were plotted as provided in FIG. 30A using ImageJ program (version 1.50i, NIH). The average fluorescence intensity trace was taken as the individual intra-cellular sodium concentration trace for the cells treated with “SCN-ASO 7” at 0 (negative control), 100 or 1,000 zM.
“SCN-ASO 3” was evaluated for its ability to inhibit the sodium current in PC3 cells using “CoroNa Green” according to the protocol described in “SCN9A Example 5”, unless noted otherwise.
“SCN-ASO 8” was evaluated for its ability to inhibit the sodium current in PC3 cells using “CoroNa Green” according to the protocol described in “SCN9A Example 3”, unless noted otherwise.

## Fethoc-A(6)GA-A(6)CT-TA(6)T-CC(1O2)T-A(6)CT-TA(6)-NH2 (AGAACTTATCCTACTTA; splice-switching; all peptide nucleic acid (PNA), [A(6)] at 1, 4, 8, 13, 17, [C(1O2)] at 11, 5' {Fethoc}, 3' {NH2}; peptide nucleic acid backbone) [HIF-ASO 6]
HIF-1α protein; HeLa cells, 10, 100 or 1,000 zM
  decrease of HIF-1α protein expression (western blot, normalized against β-actin): 45-55%

## Fethoc-AC(1O2)T-TA(5)C-G(6)CA-A(5)AA(5)-AC(1O2)A-A(5)-NH2 (ACTTACGCAAAAACAA; all peptide nucleic acid (PNA), [C(1O2)] at 2, 14, [A(5)] at 5, 10, 12, 16, [G(6)] at 7, 5' {Fethoc}, 3' {NH2}; peptide nucleic acid written N to C) [SCN-ASO 7]
[1]; PC3 cells, 100 zM
  decrease of sodium current (CoroNa): no notable decrease
[1]; PC3 cells, 1,000 zM
  decrease of sodium current / sodium channel activity (CoroNa): 37%
[1]; PC3 cells, 1,000 zM, at 100 sec after 100 mM NaCl
  average cellular fluorescence intensity (CoroNa Green): 51.47 arbitrary unit

## Fethoc-GA(5)A-C(1O2)TT-A(5)TC-CTA(5)-C(1O2)T-NH2 (GAACTTATCCTACT; splice-switching; all peptide nucleic acid (PNA), [A(5)] at 2, 7, 12, [C(1O2)] at 4, 13, 5' {Fethoc}, 3' {NH2}; peptide nucleic acid backbone) [HIF-ASO 2]
HIF-1α protein; HeLa cells, 10 aM, then 200 μM CoCl2 3 hours
  decrease of HIF-1α protein expression (western blot, normalized against β-actin): ~75%
